According to US20230000876A1, “TREATING CANCERS WITH A CYCLIN-DEPENDENT KINASE INHIBITOR” (Nuvation Bio Inc., priority 2021, published 2023):
Like-named read-outs stand apart in the source and are kept apart here.

System: MCF-7 tumors
Type: in vivo
Conditions: for T/C / TGI: PG-D37
Description: The in vivo anti-tumor efficacy of the compound of formula (I) either alone or in combination with fulvestrant on MCF-7 breast tumor model on female Balb/c nude mice was assessed. MCF-7 cells are a breast cancer cell line that is HR+HER2−. See Booms et al., (2019) Cancer Epidemiol Biomarkers Prev 28(10); 1735-1745, which is hereby incorporated by reference.
The study was in two parts. The first part was designed to measure tumor growth inhibition (TGI). The second part was used to measure pharmacokinetic and pharmacodynamic (PKPD) parameters. In the studies, the compound of formula (I) was dosed orally (po) and fulvestrant was dosed subcutaneously. […]
The MCF-7 tumor cells were maintained in vitro in MEM supplemented with 10% heat inactivated fetal bovine serum at 37° C. in an atmosphere of 5% CO2 in air. The tumor cells were routinely subcultured twice weekly. The cells growing in an exponential growth phase were harvested and counted for tumor inoculation.
Each mouse was inoculated subcutaneously at the right flank with MCF-7 (10*10^6) cells in 0.2 mL of PBS mixed with Matrigel (50:50) for tumor development. 17β-Estradiol (0.36 mg, 60-day release) pellets (Innovative Research of America Cat. No.: SE-121, pellet size: 3.0 mm) were implanted 2 days before cell inoculation.
In TGI part, the treatments was started on day 7 after cell inoculation when the average tumor volume reaches 173 mm^3. 72 mice were selected and assigned into 9 groups. The testing articles were administrated to the mice according to Table 1.
For TGI part, the major endpoint was to see if the tumor growth could be delayed or mice could be cured. Tumor size was measured twice weekly in two dimensions using a caliper, and the volume was expressed in mm^3 using the formula: V=0.5 a×b^2 where a and b are the long and short diameters of the tumor, respectively. The tumor sizes are then used for the calculation of T/C and TGI values.
The T/C value (in percent) is an indication of antitumor effectiveness; T and C are the mean volume of the treated and control groups, respectively, on a given day.
TGI was calculated for each group using the formula: TGI (%)=[1−(Ti−T0)/(Vi−V0)]×100; Ti is the average tumor volume of a treatment group on PG-Di, T0 is the average tumor volume of the treatment group on the day of treatment start, Vi is the average tumor volume of the vehicle control group on the same day with Ti, and V0 is the average tumor volume of the vehicle group on the day of treatment start.
For comparison among of tumor volume of groups 2-9 and group 1, a one-way ANOVA was performed. All the analysis were conducted using GraphPad Prism software. p<0.05 was considered to be statistically significant.

Structure (SMILES): CC(C)N1CCOc2c(F)cc(-c3nc(Nc4ccc(C5CCN(C)CC5)cn4)ncc3F)cc21 [Compound (I), 5-fluoro-4-(8-fluoro-4-isopropyl-3,4-dihydro-2H-benzo[b][1,4]oxazin-6-yl)-N-(5-(1-methylpiperidin-4-yl)pyridin-2-yl)pyrimidin-2-amine]
- Tumor volume (mean ± SEM) (10 mg/kg PO QD, day 0): 173 ± 12 mm^3
- Tumor volume (mean ± SEM) (10 mg/kg PO QD, day 3): 195 ± 14 mm^3
- Tumor volume (mean ± SEM) (10 mg/kg PO QD, day 6): 188 ± 25 mm^3
- Tumor volume (mean ± SEM) (10 mg/kg PO QD, day 9): 185 ± 15 mm^3
- Tumor volume (mean ± SEM) (10 mg/kg PO QD, day 13): 179 ± 21 mm^3
- Tumor volume (mean ± SEM) (10 mg/kg PO QD, day 16): 187 ± 22 mm^3
- Tumor volume (mean ± SEM) (10 mg/kg PO QD, day 20): 228 ± 36 mm^3
- Tumor volume (mean ± SEM) (10 mg/kg PO QD, day 23): 268 ± 37 mm^3
- Tumor volume (mean ± SEM) (10 mg/kg PO QD, day 27): 310 ± 56 mm^3
- Tumor volume (mean ± SEM) (10 mg/kg PO QD, day 30): 358 ± 60 mm^3
- Tumor volume (mean ± SEM) (10 mg/kg PO QD, day 34): 446 ± 93 mm^3
- Tumor volume (mean ± SEM) (10 mg/kg PO QD, day 37): 505 ± 116 mm^3
- Tumor volume (mean ± SEM) (10 mg/kg PO QD, day 41): 530 ± 113 mm^3
- Tumor volume (mean ± SEM) (10 mg/kg PO QD, day 44): 468 ± 99 mm^3
- Tumor volume (mean ± SEM) (10 mg/kg PO QD, day 48): 472 ± 120 mm^3
- T/C (10 mg/kg QD): 25.18%
- TGI (10 mg/kg QD): 81.88%
- Tumor volume (mean ± SEM) (30 mg/kg PO QD, day 0): 173 ± 11 mm^3
- Tumor volume (mean ± SEM) (30 mg/kg PO QD, day 3): 192 ± 16 mm^3
- Tumor volume (mean ± SEM) (30 mg/kg PO QD, day 6): 151 ± 24 mm^3
- Tumor volume (mean ± SEM) (30 mg/kg PO QD, day 9): 153 ± 19 mm^3
- Tumor volume (mean ± SEM) (30 mg/kg PO QD, day 13): 147 ± 17 mm^3
- Tumor volume (mean ± SEM) (30 mg/kg PO QD, day 16): 154 ± 18 mm^3
- Tumor volume (mean ± SEM) (30 mg/kg PO QD, day 20): 159 ± 21 mm^3
- Tumor volume (mean ± SEM) (30 mg/kg PO QD, day 23): 175 ± 23 mm^3
- Tumor volume (mean ± SEM) (30 mg/kg PO QD, day 27): 168 ± 25 mm^3
- Tumor volume (mean ± SEM) (30 mg/kg PO QD, day 30): 186 ± 28 mm^3
- Tumor volume (mean ± SEM) (30 mg/kg PO QD, day 34): 193 ± 34 mm^3
- Tumor volume (mean ± SEM) (30 mg/kg PO QD, day 37): 227 ± 41 mm^3
- Tumor volume (mean ± SEM) (30 mg/kg PO QD, day 41): 228 ± 51 mm^3
- Tumor volume (mean ± SEM) (30 mg/kg PO QD, day 44): 234 ± 52 mm^3
- Tumor volume (mean ± SEM) (30 mg/kg PO QD, day 48): 206 ± 39 mm^3
- T/C (30 mg/kg QD): 11.32%
- TGI (30 mg/kg QD): 97.06%
- Toxicity (body weight as indirect measurement) (MCF-7 tumor-bearing mice, 10 or 30 mg/kg PO QD, alone or with fulvestrant, 49 days): not toxic
